Assay results as given in PMC11591545 (Antibiotics, 2024).
Values after ≈ are worked out from the molar mass of the structure shown. Where two headings read alike, the source gives them in different places.

Tests used:
[1] = fixed in the final model, based on a previous reported value; cited from earlier work
[2] = clinical; settings: human, in vivo, iv
[3] = label; cited from earlier work
[4] = test system: S. aureus infection isolates; assay: MIC strips test and broth microdilution assay according to EUCAST; format: cell-based, Staphylococcus aureus
Protocol: The MIC was tested with the MIC strips test (Liofilchem, Roseto degli Abruzzi, Italy) and broth microdilution assay according to EUCAST standards and the manufacturer’s instructions. All patients with VAD-associated infections were included in a register study after providing informed consent. A positive vote of the ethics committee of Heidelberg University Hospital was obtained before the start of the study (S-674/2022). […] Clinical data and laboratory and microbiological results were extracted.

[5] = test system: S. aureus; assay: Individual fAUC24 h/MIC at the end of the dosing interval in VAD patients; settings: last 24 h before redosing
Protocol: To use a conservative approach in suppressive therapy reflecting efficacy in the crucial phase before redosing, the AUC was calculated at the end of the dosing interval (last 24 h before redosing) [21].

[6] = human
Protocol: (§1) Sampling was routinely performed on three occasions for each patient at day 1 (30 min after the end of the infusion), day 7 (before redosing), and day 42 (before redosing). Blood samples were centrifuged (5 min, 4000 rpm) immediately after collection and aliquoted into 2 mL propylene tubes (Eppendorf, Hamburg, Germany). Aliquots were stored at −20 °C within 60 min after sample collection for a maximum of 4 weeks until assay. […] To obtain the unbound fraction, samples were prepared by solid phase extraction using a Nanosep® filter (Pall, New York, NY, USA) [18]. The limit of quantification (QL) was 12.5 mg/L for the total concentration and 1 mg/L for the unbound fraction [18].

[7] = clinical; settings: human, serum, iv, 1500 mg; SD
Protocol: as §1

[8] = serum, mean ± SD
Protocol: as §1

[9] = cited from earlier work
[10] = in vivo

## CN[C@H]1C(=O)N[C@@H]2Cc3ccc(cc3)Oc3cc4cc(c3O[C@@H]3O[C@H](C(=O)O)[C@@H](O)[C@H](O)[C@H]3NC(=O)CCCCCCCCC(C)C)Oc3ccc(cc3Cl)[C@@H](O)[C@@H]3NC(=O)[C@H](NC(=O)[C@@H]4NC(=O)[C@@H](NC2=O)c2cc(cc(O)c2Cl)Oc2cc1ccc2O)c1ccc(O)c(c1)-c1c(O[C@H]2O[C@H](CO)[C@@H](O)[C@H](O)[C@@H]2O)cc(O)cc1[C@@H](C(=O)NCCCN(C)C)NC3=O [dalbavancin]
[1]
  Q, inter-compartmental clearance: 0.476 L/h
[2]
  Vd: 21.9 L
  clearance: 0.833 mL/min
[3]
  labeled protein binding: 93%
[4]; isolate of patient 1
  MIC: 0.064 µg/mL (≈ 0.0352 µM)
[4]; isolate of patient 2
  MIC: 0.064 µg/mL (≈ 0.0352 µM)
[4]; isolate of patient 5
  MIC: 0.094 µg/mL (≈ 0.0517 µM)
[4]; isolate of patient 7
  MIC: 0.047 µg/mL (≈ 0.0259 µM)
[4]; isolate of patient 8
  MIC: 0.047 µg/mL (≈ 0.0259 µM)
[4]; isolate of patient 9
  MIC: 0.064 µg/mL (≈ 0.0352 µM)
[4]; isolate of patient 10
  MIC: 0.125 µg/mL (≈ 0.0688 µM)
[4]; isolate of patient 11
  MIC: 0.064 µg/mL (≈ 0.0352 µM)
[4]; isolate of patient 12
  MIC: 0.047 µg/mL (≈ 0.0259 µM)
[4]; isolate of patient 13
  MIC: 0.064 µg/mL (≈ 0.0352 µM)
[5]; patient 1
  fAUC24 h/MIC: 141
[5]; patient 2
  fAUC24 h/MIC: 318
[5]; patient 3, MIC not available, calculated with S. aureus breakpoint 0.25 mg/L
  fAUC24 h/MIC: 26
[5]; patient 4, MIC not available, calculated with S. aureus breakpoint 0.25 mg/L
  fAUC24 h/MIC: 127
[5]; patient 5
  fAUC24 h/MIC: 110
[5]; patient 6, MIC not available, calculated with S. aureus breakpoint 0.25 mg/L
  fAUC24 h/MIC: 49
[5]; patient 7
  fAUC24 h/MIC: 165
[5]; patient 8
  fAUC24 h/MIC: 253
[5]; patient 9
  fAUC24 h/MIC: 582
[5]; patient 10
  fAUC24 h/MIC: 60
[5]; patient 11
  fAUC24 h/MIC: 311
[5]; patient 12
  fAUC24 h/MIC: 104
[5]; patient 13
  fAUC24 h/MIC: 84
[6]
  observed protein binding: 96-98%
[7]
  level at 0.5 h: 218000 ± 65900 ng/mL
  level at 168 h: 41100 ± 11100 ng/mL
  level at 1008 h: 13200 ± 9900 ng/mL
[8]; end of infusion after the first dose
  fcday1 (unbound concentration day 1): 6.3 ± 2.7
[8]; trough by the end of the first week
  fcday8 (unbound concentration day 8): 1.3 ± 0.6
[9]; earlier population PK studies
  population VD: 15.0 to 16.7 L
[9]; reported
  half-life: 15.6 days
[9]; three-compartment model, ref Carrothers et al. 14
  clearance (CL): 0.053 L/h
[9]; two-compartment model, ref Buckwalter et al. 11
  clearance (CL): 0.057 L/h
[9]; two-compartment model, ref Cojutti et al. 13
  clearance (CL): 0.041 L/h
[10]
  CL, bootstrap mean (CI 95%): 0.050 (0.044–0.055) L/h
  V1, bootstrap mean (CI 95%): 6.42 (5.65–7.31) L
  V1, central volume of distribution, estimate: 6.5 L
  V2, bootstrap mean (CI 95%): 14.99 (12.46–18.67) L
  V2, peripheral volume of distribution, estimate: 15.4 L
